Results taken from patent publication US20040156869A1, “2-substituted quinazolin-4-ylamine analogues” (Neurogen Corporation, priority 2002, published 2004).
Read-outs that look alike come from different tables or passages of the source.

Biological target: human capsaicin receptor (VR1) (Homo sapiens, UniProt Q8NER1)
Experiment: Capsaicin receptor binding assay ([3H]RTX competition, VR1-transfected HEK293 membranes)

Chain of human capsaicin receptor (VR1) (Q8NER1 whole entry): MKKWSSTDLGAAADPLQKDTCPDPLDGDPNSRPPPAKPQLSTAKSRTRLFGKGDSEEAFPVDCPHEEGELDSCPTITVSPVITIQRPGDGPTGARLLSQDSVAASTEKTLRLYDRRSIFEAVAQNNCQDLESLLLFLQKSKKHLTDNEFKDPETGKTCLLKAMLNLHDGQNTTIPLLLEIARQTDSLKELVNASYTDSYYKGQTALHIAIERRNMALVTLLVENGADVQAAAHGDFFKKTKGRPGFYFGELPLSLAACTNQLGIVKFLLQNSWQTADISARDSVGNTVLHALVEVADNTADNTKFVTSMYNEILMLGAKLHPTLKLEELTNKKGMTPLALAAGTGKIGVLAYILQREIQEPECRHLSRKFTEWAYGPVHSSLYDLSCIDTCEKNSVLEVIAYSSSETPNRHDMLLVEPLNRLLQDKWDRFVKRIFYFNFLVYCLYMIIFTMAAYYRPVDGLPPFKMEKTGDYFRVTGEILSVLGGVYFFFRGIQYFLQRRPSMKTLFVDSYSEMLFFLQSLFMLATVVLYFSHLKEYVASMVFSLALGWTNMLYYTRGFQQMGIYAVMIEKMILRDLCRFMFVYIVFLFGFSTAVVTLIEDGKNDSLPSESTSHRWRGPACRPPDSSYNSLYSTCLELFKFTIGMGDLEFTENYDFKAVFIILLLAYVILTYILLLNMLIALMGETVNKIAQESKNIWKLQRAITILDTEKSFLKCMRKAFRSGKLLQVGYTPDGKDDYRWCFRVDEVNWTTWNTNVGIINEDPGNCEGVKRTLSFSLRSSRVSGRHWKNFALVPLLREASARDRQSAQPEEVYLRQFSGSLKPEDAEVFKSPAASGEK

| Ki | Ki (Table III, capsaicin receptor binding) | SMILES |
| --- | --- | --- |
| < 1 µM | – | COCc1nc(Nc2ccc(OC(F)(F)F)cc2)c2ccc(-c3ncccc3C)nc2n1 [Compound 196, [2-Methoxymethyl-7-(3-methyl-pyridin-2-yl)-pyrido[2,3-d]pyrimidin-4-yl]-(4-trifluoromethoxy-phenyl)-amine] |
| < 1 µM | – | CC(C)S(=O)(=O)c1ccc(Nc2nc(CN3CCO[C@@H](C)C3)nc3cc(-c4ncccc4Cl)ccc23)cc1 [Compound 646, (S)-[7-(3-Chloro-pyridin-2-yl)-2-(2-methyl-morpholin-4-ylmethyl)-quinazolin-4-yl]-[4-(propane-2-sulfonyl)-phenyl]-amine] |
| < 1 µM | – | FC(F)(F)c1ccc(Nc2nc(Cn3ccnc3)nc3cc(-c4ncccc4C(F)(F)F)ccc23)cn1 [Compound 579, [2-Imidazol-1-ylmethyl-7-(3-trifluoromethyl-pyridin-2-yl)-quinazolin-4-yl]-(6-trifluoromethyl-pyridin-3-yl)-amine] |
| < 1 µM | – | CCc1ccc(Nc2nc(CN3C[C@H](C)O[C@@H](C)C3)nc3cc(-c4ncccc4Cl)ccc23)cc1 [Compound 651, (S,S)-[7-(3-Chloro-pyridin-2-yl)-2-(2,6-dimethyl-morpholin-4-ylmethyl)-quinazolin-4-yl]-(4-ethyl-phenyl)-amine] |
| < 1 µM | – | C[C@H]1CN(Cc2nc(Nc3ccc(C(F)(F)F)cc3)c3ccc(-c4ncccc4Cl)cc3n2)C[C@H](C)O1 [Compound 604, (S,S)-[7-(3-Chloro-pyridin-2-yl)-2-(2,6-dimethyl-morpholin-4-ylmethyl)-quinazolin-4-yl]-(4-trifluoromethyl-phenyl)-amine] |
| < 1 µM | – | CN(Cc1nc(Nc2ccc(C(F)(F)F)nc2)c2ccc(-c3ncccc3C(F)(F)F)cc2n1)C1CCc2ccccc21 (centres unmarked) [Compound 349, [2-[(Indan-1-yl-methyl-amino)-methyl]-7-(3-trifluoromethyl-pyridin-2-yl)-quinazolin-4-yl]-(6-trifluoromethyl-pyridin-3-yl)-amine] |
| < 1 µM | – | Cc1cccnc1-c1ccc2c(Nc3ccc(C(F)(F)F)cc3)nc(C3CNC3)nc2n1 [Compound 735, [2-Azetidin-3-yl-7-(3-methyl-pyridin-2-yl)-pyrido[2,3-d]pyrimidin-4-yl]-(4-trifluoromethyl-phenyl)-amine] |
| < 1 µM | – | CC(C)(C)c1ccc(Nc2nc(CN3CCC[C@H]3C(=O)O)nc3cc(-c4ncccc4C(F)(F)F)ccc23)cc1 [Compound 744, (S)-1-[4-(4-tert-Butyl-phenylamino)-7-(3-trifluoromethyl-pyridin-2-yl)-quinazolin-2-ylmethyl]-pyrrolidine-2-carboxylic acid] |
| < 1 µM | – | COCc1nc(Nc2ccc(C3CCCCC3)cc2)c2ncc(-c3ncccc3C(F)(F)F)cc2n1 [Compound 56, (4-Cyclohexyl-phenyl)-[2-methoxymethyl-7-(3-trifluoromethyl-pyridin-2-yl)-pyrido[3,2-d]pyrimidin-4-yl]-amine] |
| < 1 µM | – | CCOC(=O)C1CCN(Cc2nc(Nc3ccc(C(F)(F)F)cc3)c3ccc(-c4ncccc4C(F)(F)F)cc3n2)CC1 [Compound 503, 1-[4-(4-Trifluoromethyl-phenylamino)-7-(3-trifluoromethyl-pyridin-2-yl)-quinazolin-2-ylmethyl]-piper idine-4-carboxylic acid ethyl ester] |
| < 1 µM | – | COCc1cc(Nc2ccc(Cl)cc2)c2ccc(-c3ncccc3C(F)(F)F)nc2n1 [Compound 302, (4-Chloro-phenyl)-[2-methoxymethyl-7-(3-trifluoromethyl-pyridin-2-yl)-[1,8]naphthyridin-4-yl]-amine] |
| < 1 µM | – | CC(C)N(C)CCc1nc(Nc2ccc(C(F)(F)F)cc2)c2ccc(-c3ncccc3C(F)(F)F)cc2n1 [Compound 421, [2-[(Isopropyl-methyl-amino)-ethyl]-7-(3-trifluoromethyl-pyridin-2-yl)-quinazolin-4-yl]-(4-trifluoromethyl-phenyl)-amine] |
| < 1 µM | – | FC(F)(F)c1ccc(Nc2nc(CN3CCCCCCC3)nc3cc(-c4ncccc4C(F)(F)F)ccc23)cn1 [Compound 362, [2-Azocan-1-ylmethyl-7-(3-trifluoromethyl-pyridin-2-yl)-quinazolin-4-yl]-(6-trifluoromethyl-pyridin-3-yl)-amine] |
| < 1 µM | – | CC(C)(C)c1ccc(Nc2nc(CN3CCCS3(=O)=O)nc3cc(-c4ncccc4C(F)(F)F)ccc23)cc1 [Compound 697, (4-tert-Butyl-phenyl)-[2-(1,1-dioxo-1λ^6-isothiazolidin-2-ylmethyl)-7-(3-trifluoromethyl-pyridin-2-yl)-quinazolin-4-yl]-amine] |
| < 1 µM | – | CC(CN(C)C)NC(=O)c1nc(Nc2ccc(C(F)(F)F)cc2)c2ccc(-c3ncccc3C(F)(F)F)nc2n1 (centres unmarked) [Compound 444, 4-(4-Trifluoromethyl-phenylamino)-7-(3-trifluoromethyl-pyridin-2-yl)-pyrido[2,3-d]pyrimidine-2-carboxylic acid (2-dimethylamino-1-methyl-ethyl)-amide] |
| < 1 µM | – | O=C(O)C1CCN(C(=O)c2nc(Nc3ccc(C(F)(F)F)cc3)c3ccc(-c4ncccc4C(F)(F)F)nc3n2)CC1 [Compound 767, 1-[4-(4-Trifluoromethyl-phenylamino)-7-(3-trifluoromethyl-pyridin-2-yl)-pyrido[2,3-d]pyrimidine-2-carbonyl]-piperidine-4-carboxylic acid] |
| < 1 µM | – | CN(C)CC(O)COCc1nc(Nc2ccc(C(F)(F)F)cc2)c2ccc(-c3ncccc3C(F)(F)F)cc2n1 (centres unmarked) [Compound 144, 1-Dimethylamino-3-[4-(4-trifluoromethyl-phenylamino)-7-(3-trifluoromethyl-pyridin-2-yl)-quinazolin-2-ylmethoxy]-propan-2-ol] |
| < 1 µM | – | FC(F)(F)c1ccc(Nc2nc(-c3ccncc3)nc3cc(-c4ncccc4C(F)(F)F)ccc23)cc1 [Compound 507, [2-Pyridin-4-yl-7-(3-trifluoromethyl-pyridin-2-yl)-quinazolin-4-yl]-(4-trifluoromethyl-phenyl)-amine] |
| – | < 1 µM | CC1CC(C)CN(Cc2nc(Nc3ccc(C(F)(F)F)nc3)c3ccc(-c4ncccc4C(F)(F)F)cc3n2)C1 (centres unmarked) [Compound 559, [2-(3,5-Dimethyl-piperidin-1-ylmethyl)-7-(3-trifluoromethyl-pyridin-2-yl)-quinazolin-4-yl]-(6-trifluoromethyl-pyridin-3-yl)-amine] |
| < 1 µM | – | COCc1nc(Nc2ccc(C(C)C)cc2)c2ncc(-c3ncccc3C(F)(F)F)cc2n1 [Compound 51, (4-Isopropyl-phenyl)-[2-methoxymethyl-7-(3-trifluoromethyl-pyridin-2-yl)-pyrido[3,2-d]pyrimidin-4-yl]-amine] |
| < 1 µM | – | CCOC(=O)Cc1nc(Nc2ccc(C(F)(F)F)cc2)c2ccc(-c3ncccc3C(F)(F)F)cc2n1 [Compound 20, [4-(4-Trifluoromethyl-phenylamino)-7-(3-trifluoromethyl-pyridin-2-yl)-quinazolin-2-yl]-acetic acid ethyl ester] |

| SMILES | Ki | Ki (Table III, capsaicin receptor binding) |
| --- | --- | --- |
| CC(=O)C(C)(C)c1ccc(Nc2nc(COCC(C)C)nc3nc(-c4ncccc4C)ccc23)cc1 [Compound 209, 3-{4-[2-Isobutoxymethyl-7-(3-methyl-pyridin-2-yl)-pyrido[2,3-d]pyrimidin-4-ylamino]-phenyl}-3-methyl-butan-2-one] | < 1 µM | – |
| CC(C)COCc1cc(Nc2ccc(C(F)(F)F)cc2)c2ccc(-c3ncccc3C(F)(F)F)nc2n1 [Compound 301, [2-Isobutoxymethyl-7-(3-trifluoromethyl-pyridin-2-yl)-[1,8]naphthyridin-4-yl]-(4-trifluoromethyl-phenyl)-amine] | < 1 µM | – |
